Key:
[1] = log P determination by HPLC (EEC directive 79/831 Annex V.A8, reverse-phase C 18); settings: for logP: HPLC, reverse-phase C 18, 43° C., acidic range: 0.1% aqueous phosphoric acid/acetonitrile gradient (marked a)); for chromatographic logP: reverse-phase C18 HPLC column, pH 2.3
[2] = tested on: crop plants, such as wheat; assay: Post-emergence test (crop plant tolerance); type: in vivo; settings: some crop plants, e.g. wheat, rated after three weeks
[3] = tested on: crop plants, such as corn and sugar beet; assay: Pre-emergence test (crop plant tolerance); type: in vivo; settings: some crop plants, e.g. corn and sugar beet, rated after three weeks
weeds [4] = assay: Post-emergence test (herbicidal activity); type: in vivo; settings: test plants of 5-15 cm sprayed, rated after three weeks
weeds [5] = assay: Pre-emergence test (herbicidal activity); type: in vivo; settings: soil sprayed 24 hours after sowing, rated after three weeks

Structure (SMILES): CCOC(=O)C1CCN(c2cc(-n3c(=O)cc(C(F)(F)F)[nH]c3=O)c(F)cc2C#N)CC1
- melting point: 124.5 °C

Structure (SMILES): CCOC(=O)C1CCCCN1c1cc(-n2c(=O)cc(C(F)(F)F)n(C)c2=O)c(F)cc1Br (stereo not drawn) [Example 74]
- logP [1]: logP = 4.18^a)

Structure (SMILES): Cn1c(C(F)(F)F)cc(=O)n(-c2cc(N3CCC(C(F)(F)F)CC3)c(C#N)cc2F)c1=O [Example 37]
- logP [1]: logP = 3.52^a)

Structure (SMILES): Cn1c(C(F)(F)F)cc(=O)n(-c2cc(-n3ccc(C=O)c3)c(C#N)cc2F)c1=O [Example 6]
- logP [1]: m.p.: 174 °C logP = 2.25^a)
- tolerance by crop plants [2]: tolerated well
- tolerance by crop plants [3]: tolerated well

Structure (SMILES): CCOC(=O)CCN1CC(=O)N(c2cc(-n3c(=O)cc(C(F)(F)F)n(C)c3=O)c(F)cc2C#N)C1=O [Example 8]
- logP [1]: logP = 2.48^a)

Structure (SMILES): N#Cc1cc(F)c(-n2c(=O)cc(C(F)(F)F)[nH]c2=O)cc1N1CCC(C(F)(F)F)CC1 [Example 42]
- logP [1]: logP = 2.96^a)

Structure (SMILES): CCOC(=O)C1CCN(c2cc(-n3c(=O)cc(C(F)(F)F)n(N)c3=O)c(F)cc2C#N)CC1 [Example 16]
- logP [1]: logP = 2.89^a)
- activity against weeds (degree of damage vs untreated control) (weeds [4]): very strong activity
- activity against weeds (degree of damage vs untreated control) (weeds [5]): very strong activity
- tolerance by crop plants [2]: tolerated well
- tolerance by crop plants [3]: tolerated well

Structure (SMILES): Cn1c(C(F)(F)F)cc(=O)n(-c2cc(N3CCC4(CC3)OCCO4)c(C#N)cc2F)c1=O [Example 34]
- logP [1]: logP = 2.67^a)

Structure (SMILES): Cn1c(C(F)(F)F)cc(=O)n(-c2cc(N3C(=O)CSC3=O)c(C#N)cc2F)c1=O [Example 11]
- logP [1]: logP = 2.36^a)
- activity against weeds (degree of damage vs untreated control) (weeds [4]): very strong activity
- tolerance by crop plants [2]: tolerated well

Structure (SMILES): Cn1c(C(F)(F)F)cc(=O)n(-c2cc(N3CCC(O)CC3)c(C#N)cc2F)c1=O [Example 20]
- logP [1]: logP = 3.97^a)
- activity against weeds (degree of damage vs untreated control) (weeds [4]): very strong activity
- activity against weeds (degree of damage vs untreated control) (weeds [5]): very strong activity
- tolerance by crop plants [2]: tolerated well
- tolerance by crop plants [3]: tolerated well

Structure (SMILES): N#Cc1cc(F)c(-n2c(=O)cc(C(F)(F)F)[nH]c2=O)cc1N1CCC(C#N)CC1 [Example 38]
- logP [1]: logP = 2.08^a)

Structure (SMILES): Cn1c(C(F)(F)F)nn(-c2cc(N3CCC4(CC3)OCCO4)c(C#N)cc2F)c1=O [Example 50]
- logP [1]: logP = 2.81^a)

Structure (SMILES): N#Cc1cc(F)c(-n2c(=O)cc(C(F)(F)F)[nH]c2=O)cc1N1CCC(O)CC1 [Example 18]
- logP [1]: logP = 1.62^a)

Structure (SMILES): N#Cc1cc(F)c(-n2c(=O)cc(C(F)(F)F)n(N)c2=O)cc1N1CCC2(CC1)OCCO2 [Example 35]
- logP [1]: logP = 2.37^a)

Structure (SMILES): CCOC(=O)C1CCCN(c2cc(-n3c(=O)cc(C(F)(F)F)n(C)c3=O)c(F)cc2Cl)C1 (stereo not drawn) [Example 68]
- logP [1]: logP = 3.87^a)

Structure (SMILES): CCOC(=O)C1CCCN(c2cc(-n3c(=O)cc(C(F)(F)F)[nH]c3=O)c(F)cc2C#N)C1 (stereo not drawn) [Example 24]
- logP [1]: logP = 3.31^a)
- tolerance by crop plants [2]: tolerated well
- tolerance by crop plants [3]: tolerated well

Structure (SMILES): Cn1c(C(F)(F)F)cc(=O)n(-c2cc(N3CCC4(CC3)OCCCO4)c(C#N)cc2F)c1=O [Example 40]
- logP [1]: logP = 2.69^a)

Structure (SMILES): CCOC(=O)C1CCCN(c2cc(-n3c(=O)cc(C(F)(F)F)n(C)c3=O)c(F)cc2Br)C1 (stereo not drawn) [Example 73]
- logP [1]: logP = 3.99^a)

Structure (SMILES): CCOC(=O)C1CCN(c2cc(-n3c(=O)cc(C(F)(F)F)n(C)c3=O)c(F)cc2C#N)CC1 [Example 2, 3-[4-cyano-5-(4-ethoxycarbonylpiperidin-1-yl)-2-fluorophenyl]-1-methyl-6-trifluoromethyl-1H-pyrimidine-2,4-dione]
- chromatographic logP [1]: 3.23
- activity against weeds (degree of damage vs untreated control) (weeds [4]): very strong activity
- activity against weeds (degree of damage vs untreated control) (weeds [5]): very strong activity
- tolerance by crop plants [2]: tolerated well
- tolerance by crop plants [3]: tolerated well

Structure (SMILES): COC(=O)C1CCN(c2cc(-n3c(=O)cc(C(F)(F)F)n(C)c3=O)c(F)cc2C#N)CC1 [Example 28]
- logP [1]: logP = 2.88^a)
- activity against weeds (degree of damage vs untreated control) (weeds [4]): very strong activity
- activity against weeds (degree of damage vs untreated control) (weeds [5]): very strong activity
- tolerance by crop plants [2]: tolerated well
- tolerance by crop plants [3]: tolerated well

Structure (SMILES): CC1OC(=O)N(c2cc(-n3c(=O)cc(C(F)(F)F)n(C)c3=O)c(F)cc2C#N)C1=O (stereo not drawn) [Example 10]
- logP [1]: logP = 2.49^a)
- tolerance by crop plants [2]: tolerated well

Structure (SMILES): CCOC(=O)C1CCCN1c1cc(-n2c(=O)cc(C(F)(F)F)n(C)c2=O)c(F)cc1Cl (stereo not drawn) [Example 83]
- logP [1]: logP = 3.49^a)

Structure (SMILES): Cn1c(C(F)(F)F)cc(=O)n(-c2cc(-n3cccc3)c(C#N)cc2F)c1=O [Example 5]
- tolerance by crop plants [2]: tolerated well
- tolerance by crop plants [3]: tolerated well

Structure (SMILES): Cn1c(C(F)(F)F)cc(=O)n(-c2cc(N3CCC(O)C3)c(C#N)cc2F)c1=O (stereo not drawn) [Example 31]
- logP [1]: logP = 2.02^a)
- activity against weeds (degree of damage vs untreated control) (weeds [4]): very strong activity
- activity against weeds (degree of damage vs untreated control) (weeds [5]): very strong activity
- tolerance by crop plants [2]: tolerated well
- tolerance by crop plants [3]: tolerated well

Structure (SMILES): CCOC(=O)C1CCCN1c1cc(-n2c(=O)cc(C(F)(F)F)n(C)c2=O)c(F)cc1C#N (stereo not drawn) [Example 84]
- logP [1]: logP = 3.01^a)

Structure (SMILES): CCOC(=O)C1CCCN1c1cc(-n2c(=O)cc(C(F)(F)F)n(C)c2=O)c(F)cc1Br (stereo not drawn) [Example 82]
- logP [1]: logP = 3.61^a)

Structure (SMILES): CCOC(=O)C1CCCCN1c1cc(-n2c(=O)cc(C(F)(F)F)n(C)c2=O)c(F)cc1Cl (stereo not drawn) [Example 69]
- logP [1]: logP = 4.07^a)

Structure (SMILES): Cn1c(C(F)(F)F)cc(=O)n(-c2cc(N3C(=O)C4CCCCN4C3=O)c(C#N)cc2F)c1=O (stereo not drawn) [Example 9]
- logP [1]: logP = 2.42^a)
- tolerance by crop plants [2]: tolerated well
- tolerance by crop plants [3]: tolerated well

Structure (SMILES): CCOC(=O)C1CCN(c2cc(N3C(=O)C(C)=C(C)C3=O)c(F)cc2C#N)CC1 [Example 64]
- logP [1]: logP = 3.37^a)

Structure (SMILES): Cn1c(C(F)(F)F)cc(=O)n(-c2cc(N3C(=O)CN(C4CC4)C3=O)c(C#N)cc2F)c1=O [Example 3, 3-[4-cyano-2-fluoro-5-(1-cyclopropyl-2,4-dioxoimidazolidin-3-yl)phenyl]-1-methyl-6-trifluoromethyl-1H-pyrimidine-2,4-dione]
- chromatographic logP [1]: 2.25
- activity against weeds (degree of damage vs untreated control) (weeds [4]): very strong activity
- activity against weeds (degree of damage vs untreated control) (weeds [5]): very strong activity
- tolerance by crop plants [2]: tolerated well
- tolerance by crop plants [3]: tolerated well

Structure (SMILES): N#Cc1cc(F)c(-n2c(=O)cc(C(F)(F)F)n(N)c2=O)cc1N1CCC2(CC1)OCCCO2 [Example 41]
- logP [1]: logP = 2.40^a)

Structure (SMILES): CCOC(=O)C1CCN(c2cc(N3C(=O)C4=C(CCCC4)C3=O)c(F)cc2C#N)CC1 [Example 59]
- logP [1]: logP = 3.77^a)

Structure (SMILES): Cn1c(C(F)(F)F)cc(=O)n(-c2cc(N3C(=O)COC3=O)c(C#N)cc2F)c1=O [Example 12]
- tolerance by crop plants [2]: tolerated well

Structure (SMILES): Cc1ccc(C)n1-c1cc(-n2c(=O)cc(C(F)(F)F)n(C)c2=O)c(F)cc1C#N [Example 4]
- tolerance by crop plants [2]: tolerated well
- tolerance by crop plants [3]: tolerated well

From patent US20060148649A1, “Substituted n-aryl nitrogen heterocycles” (priority 2003, published 2006)
